Experimental data: patent US10104882B2, “Methods and compositions for preventing and treating electrophile-mediated toxicities” (priority 2013, dated 2018)
Entries after “also recorded” stand apart in the source; their conditions may differ. Like-named read-outs stand apart in the source and are kept apart here.

Assays:
[1] = Electrophile concentration-dependent loss of GSH sulfhydryl groups (in chemico); type: biochemical; parameters: Log IC50: unit not given here; details: for Log IC50: logarithmic value, electrophile concentration that causes 50% loss of the GSH sulfhydryl group
Source text: (§1) However, acrolein and other electrophiles used in this research are α,β-unsaturated carbonyls, whereas NAPQI and pBQ are quinone derivatives. […] Although both compounds are relatively acidic (low pKa values), thiol protection is limited since the corresponding adduct reactions involving the enolates of these acids are likely to be reversible. […] 2-ACP was the most protective 1,3-dicarbonyl compound tested in this and other studies^54 and was, therefore, the focus of subsequent research. […] 2-ACP (50 μM) was also effective at protecting thiol loss induced by pBQ, the degradation product of NAPQI (data not shown). […] These electrophiles target nucleophilic sulfhydryl groups that play critical roles in protein function and cellular redox balance.

MN9D cells [2] = details: cited from earlier work; for protection from acrolein-induced cell loss: pre-incubation
male C57 BL mice = assay: Mouse model of oral acetaminophen (APAP) overdose hepatotoxicity/lethality; type: in vivo; details: for changes in hepatic parameters, compound alone: no APAP
Protocol: FIG. 7A-7B. […] Hepatoprotectants were administered 20 mins before (−20), 20 mins after (+20) or 60 mins after (+60) APAP intoxication.
A separate group received the PEG400 vehicle 20 mins prior to AAP. […] Vehicle control mice (n=10) received sequential injections of PEG400 (i.p. followed by oral). At several times post-AAP administration (2, 6, 24, 48 and 168 hrs), groups of mice were anesthetized in a carbon dioxide chamber and heparinized blood samples were collected. Samples were centrifuged and resulting serum was retained for analyses (see below). Livers were also excised, weighed and tissue samples were collected for histopathological evaluation. Remaining tissue was snap frozen in liquid nitrogen. Hepatotoxicity was determined by quantification of serum alanine aminotransferase (ALT) and aspartate aminotransferase (AST) using colorimetric assays. Serum lactate dehydrogenase (LDH) was also measured as an index of generalized AAP-induced organ toxicity. To evaluate the extent of cellular oxidative stress in liver homogenates, the unsaturated aldehyde by-products of lipid peroxidation, HNE and malondialdhyde (MDA), were determined according to a modification of the Gerard-Monnier et al. method^27. In addition, soluble thiol contents were measured in homogenates according to LoPachin et al.^44.

[3] = Ionization parameters (pKa, % anion); type: physicochemical; details: for fraction present as nucleophilic enolate/thiolate anion: physiological pH (7.4); for relative enolate concentration in solution: pH 7 / neutral conditions
[4] = Prevention of NAPQI-induced GSH sulfhydryl loss by 1,3-dicarbonyl compounds (in chemico); type: biochemical; details: for prevention of NAPQI-induced thiol loss: equimolar concentrations (50 μM), pH 7.4
Source text: FIG. 3. […] Numbers in parentheses are respective IC50 values.
FIG. 4. […] Numbers in parentheses are respective IC50 values.
as §1

[5] = Protection against pBQ-induced thiol loss (in chemico); type: biochemical; details: 50 μM
Source text: as §1

rat liver = assay: Acute ischemia-reperfusion injury of rat liver; type: in vivo, rats
Protocol: FIG. 9. Effect of 2-ACP on liver ischemia. 2-ACP (2.40 mmol/kg) or vehicle was injected i.p. 10 mins before clamping the portal vasculature for 45 mins. At the completion of the Ischemic phase, clamps were removed and the liver was reperfused for 180 mins. Following reperfusion, blood samples were removed for analysis of liver enzymes (ALT, AST) and LDH in plasma. Joining lines indicate statistically significant differences in treatment groups at ***P<0.001 level of significance.
FIG. 10. Effect of 2-ACP on liver reperfusion. 2-ACP (2.40 mmol/kg) or vehicle was injected i.p. 10 mins before restoration of hepatic circulation (reperfusion phase). At the completion of reperfusion, blood samples were removed for analysis of liver enzymes (ALT, AST) and LDH (a general enzyme indicator of tissue injury) in plasma. Joining lines indicate statistically significant differences in treatment groups at ***P<0.001 level of significance.
FIG. 11. […] At the completion of reperfusion, blood samples were removed for analysis of liver enzymes (ALT, AST) and LDH (a general enzyme indicator of tissue injury) in plasma. Joining lines indicate statistically significant differences in treatment groups at ***P<0.001 level of significance.
IR injury is the pathophysiological basis for stroke, myocardial infarction and other organ failure. It is also an underlying cause of allograft rejection following tissue transplantation. To investigate the possibility that 2-ACP and other nucleophilic dicarbonyl derivatives might be useful in preventing IR-mediated organ damage, rats were anesthetized and I/R was induced by clamping the portal vein and hepatic artery using commercially available microclips placed at the porta hepatis. The ischemic state was maintained for 45 mins, which affected approximately 70% of the liver mass. Following removal of the microclamps, hepatic reperfusion was maintained for 180 min. Animals were then sacrificed and plasma samples were taken for subsequent analysis of lactate dehydrogenase (LDH; a general enzyme indicator of cell injury) and liver enzymes (AST and ALT). […] A sham group (laparotomy only) provided baseline data for the appearance of liver enzyme in plasma. […] This level of hepatocyte leakage indicates substantial irreversible cell injury. […] Thus, prior 2-ACP administration is able to diminish the pathophysiological disposition of the ischemic phase. Further, amelioration of the ischemic phase truncates subsequent culmination of hepatocyte injury during reperfusion. To determine whether hepatoprotection was phase-specific and dose-dependent, 2-ACP (1.20-2.40 mmol/kg) was injected i.p. 10 mins prior to the restoration of hepatic circulation (reperfusion phase).

[6] = cited from earlier work; for effect on rate of acrolein-induced sulfhydryl (thiol) loss: physiological conditions (pH 7.4); for thiol protection against acrolein-induced thiol loss: pH 9.0
[7] = system: Rat striatal synaptosomes; details: acrolein 1-1000 μM with cytoprotectant 500 μM; cited from earlier work
MN9D cells [8] = details: cited from earlier work
[9] = in chemico; cited from earlier work
[10] = i.p. 2.40 mmol/kg 10 mins before ischemia (45 min), reperfusion 180 min
[11] = i.p. 10 mins before reperfusion, 2-ACP 1.20-2.40 mmol/kg, equimolar NAC

SMILES: CCN1C(=O)C=CC1=O [NEM, N-ethylmaleimide]
- Log IC50 [1]: 1.23

SMILES: C=CC=O [Acrolein, acrolein]
- Log IC50 [1]: 1.72
- CC50 (MN9D cells [2]; read-out: LC50 (acrolein concentration producing 50% cell lethality), acrolein 50-150 μM): 96 µM

SMILES: CC(=O)Nc1ccc(O)cc1 [APAP, N-acetyl-p-aminophenol]
- lethality of oral APAP overdose (male C57 BL mice; oral 500 mg/kg, mice, within 72 hrs): ~90%

SMILES: N[C@@H](CCC(=O)N[C@@H](CS)C(=O)NCC(=O)O)C(=O)O [GSH, glutathione]
- pKa ([3]; Table 1, read-out: pKa): 8.6
- % Anion (pH = 7.4) [3]: 5.9%

SMILES: O=C1C=CC(=O)C=C1 [pBQ, p-benzoquinone]
- Log IC50 [1]: 1.06

SMILES: COc1cc(/C=C/C(=O)CC(=O)/C=C/c2ccc(O)c(OC)c2)ccc1O [Curcumin, curcumin]
- pKa ([3]; Table 1, read-out: pKa): 7.8
- % Anion (pH = 7.4) [3]: 28.5%

SMILES: CC(=O)C1CCCC1=O (stereo not shown) [2-ACP, 2-acetylcyclopentanone]
- % Anion (pH = 7.4) [3]: 28.5%
- fraction present as nucleophilic enolate/thiolate anion [3]: ~30%
- thiol protection against NAPQI over concentration range ([4]; 2-ACP 25-200 μM, NAPQI 2-128 μM): provides thiol protection over a broad range of concentrations
- prevention of NAPQI-induced thiol loss [4]: three-fold increase in the respective IC50 value
- protection of thiol loss induced by pBQ [5]: effective
- changes in hepatic parameters, compound alone (male C57 BL mice): neither NAC nor ACP alone caused significant changes
- protection from APAP-induced lethality (survival) (male C57 BL mice; i.p. 2.40 mmol/kg, 20 min after (+20) APAP): complete protection
- protection from APAP-induced lethality (survival) (male C57 BL mice; i.p. 2.40 mmol/kg, 20 min before oral APAP 500 mg/kg, 7 day period): completely prevented APAP lethality; also recorded: complete protection
- protection from APAP-induced lethality (survival) (male C57 BL mice; i.p. 2.40 mmol/kg, 60 min after (+60) APAP): ineffective
- biochemical indices of hepatocyte death (plasma ALT, AST, LDH) and oxidative stress (liver thiol loss, unsaturated aldehyde content) (male C57 BL mice; i.p. pretreatment, oral APAP): prevented APAP-induced liver cell death
- histopathology: liver centrilobular necrosis (male C57 BL mice; i.p. pretreatment, oral APAP): prevented the liver centrilobular necrosis
- dose-dependency of protection from APAP-induced lethality (male C57 BL mice; i.p. pretreatment, 2-ACP 0.80-2.40 mmol/kg, NAC 4.80-7.20 mmol/kg): dose-dependent, although it occurred over a narrow dose-range
- oral hepatoprotection at increased dose (male C57 BL mice; oral 4.80 mmol/kg): improved oral 2-ACP hepatoprotection
- protection from APAP-induced lethality (survival) (male C57 BL mice; oral gavage 2.40 mmol/kg, 20 min before oral APAP): modest improvements in APAP survival rate
- oral hepatoprotection with buffered gavage solution (male C57 BL mice; oral, HEPES buffer pH 9.0): improved oral 2-ACP hepatoprotection
- plasma liver enzymes (ALT, AST) and LDH after I/R (rat liver; [10]): considerable reductions in the plasma appearance of liver enzymes
- plasma liver enzymes (ALT, AST) and LDH after I/R (rat liver; [11]): substantial hepatocyte dose-dependent protection
- effect on rate of acrolein-induced sulfhydryl (thiol) loss [6]: completely prevented
- change in acrolein IC50 for synaptosomal DA transport inhibition [7]: largest increases
- protection from acrolein-induced cell loss (MN9D cells [2]): completely prevented
- protection against H2O2-induced cell death (MN9D cells [8]): completely prevented cell death

SMILES: O=C1CCC(=O)C1 [CPD, 1,3-cyclopenanedione]
- prevention of NAPQI-induced thiol loss [4]: minimal thiol protection
- change in acrolein IC50 for synaptosomal DA transport inhibition [7]: relatively ineffective
- protection against H2O2-induced cell death (MN9D cells [8]): ineffective

SMILES: CC(=O)CC(C)=O [AcAc, acetylacetone]
- pKa [3]: 9.0
- prevention of NAPQI-induced thiol loss [4]: minimal thiol protection
- thiol protection against acrolein-induced thiol loss [6]: virtually complete
- effect on rate of acrolein-induced sulfhydryl (thiol) loss [6]: substantially slowed
- protection from acrolein-induced cell loss (MN9D cells [2]): moderately protective

SMILES: CC(=O)N=C1C=CC(=O)C=C1 [NAPQI, N-acetyl-p-benzoquinone imine]
- Log IC50 [1]: 0.92
- IC50 ([1]; read-out: IC50 for NAPQI-induced GSH loss, NAPQI alone, NAPQI 2-128 μM, no protectant): 9.1 µM
- second order rate constant for reaction with cysteine sulfhydryl groups [9]: 32000 M⁻¹ s⁻¹

SMILES: CC1(C)CC(=O)CC(=O)C1 [DMD, dimedone]
- pKa [3]: 5.3
- fraction present as nucleophilic enolate/thiolate anion [3]: 99%
- prevention of NAPQI-induced thiol loss [4]: ineffective
- effect on rate of acrolein-induced sulfhydryl (thiol) loss [6]: substantially slowed
- change in acrolein IC50 for synaptosomal DA transport inhibition [7]: more modest

SMILES: CC(=O)N[C@@H](CS)C(=O)O [NAC, N-acetylcysteine]
- pKa ([3]; Table 1, read-out: pKa): 9.5
- % Anion (pH = 7.4) [3]: 0.8%
- pKa ([3]; read-out: pKa): 9.6
- prevention of NAPQI-induced thiol loss [4]: only minimal protection
- changes in hepatic parameters, compound alone (male C57 BL mice): neither NAC nor ACP alone caused significant changes
- plasma liver enzymes (ALT, AST) and LDH after I/R (rat liver; [10]): did not prevent I/R liver injury
- plasma liver enzymes (ALT, AST) and LDH after I/R (rat liver; [11]): did not prevent I/R liver injury
- change in acrolein IC50 for synaptosomal DA transport inhibition [7]: more modest
- protection from acrolein-induced cell loss (MN9D cells [2]): completely prevented
- protection against H2O2-induced cell death (MN9D cells [8]): significantly less efficacious

SMILES: CC(=O)CC(=O)C(F)(F)F [TFPD, 1,1,1-trifluoro-2,4-pentanedione]
- relative enolate concentration in solution [3]: 99%
- pKa ([3]; read-out: pKa): 4.7
- thiol protection against acrolein-induced thiol loss [6]: did not increase
- effect on rate of acrolein-induced sulfhydryl (thiol) loss [6]: some thiol protection
- change in acrolein IC50 for synaptosomal DA transport inhibition [7]: relatively ineffective
- protection from acrolein-induced cell loss (MN9D cells [2]): moderately protective
- fold protection against H2O2-induced cytotoxicity (MN9D cells [8]): 3 fold

SMILES: CC(C)(C)C1=CC(=O)C=CC1=O [tBQ, tert-butylquinone]
- Log IC50 [1]: 1.24

SMILES: CC1(C)OC(=O)CC(=O)O1 [MA, Meldrum's acid]
- prevention of NAPQI-induced thiol loss [4]: ineffective
- effect on rate of acrolein-induced sulfhydryl (thiol) loss [6]: substantially slowed
- change in acrolein IC50 for synaptosomal DA transport inhibition [7]: more modest

SMILES: CCOC(=O)CC(=O)OCC [DEM, diethyl malonate]
- relative enolate concentration in solution [3]: < 0.1%
- thiol protection against acrolein-induced thiol loss [6]: significantly increased
- effect on rate of acrolein-induced sulfhydryl (thiol) loss [6]: Neither diethyl malonate (DEM; a β-diester) nor 2,5-hexanedione (HD), a γ or 1,4-diketone, affected the rate of sulfhydryl loss
- change in acrolein IC50 for synaptosomal DA transport inhibition [7]: neither DEM nor HD significantly affected the acrolein IC50
- protection from acrolein-induced cell loss (MN9D cells [2]): neither DEM nor HD was effective

SMILES: CC(=O)CCC(C)=O [HD, 2,5-hexanedione]
- effect on rate of acrolein-induced sulfhydryl (thiol) loss [6]: Neither diethyl malonate (DEM; a β-diester) nor 2,5-hexanedione (HD), a γ or 1,4-diketone, affected the rate of sulfhydryl loss
- change in acrolein IC50 for synaptosomal DA transport inhibition [7]: neither DEM nor HD significantly affected the acrolein IC50
- protection from acrolein-induced cell loss (MN9D cells [2]): neither DEM nor HD was effective
- protection against H2O2-induced cell death (MN9D cells [8]): ineffective
